The values below are quoted from earlier work in patent US20030144259A1, “Breast cancer hormonal therapy” (priority 2000, published 2003).

The conditions of the data set: human, in vivo; cited from earlier work.

Structures are written as SMILES.

With `CCC1(c2ccc(N)cc2)CCC(=O)NC1=O` (stereo not shown) [aminoglutethimide], the dizziness is recorded as 15%; the lethargy is 36%; the nausea and vomiting is given as 10%; the “patients requiring discontinuation of drug” value was “about 5%”. The “patients with side effects” value is “about 35%”, the severe myelosuppression entry is on record as “less than 1%” and the transient maculopapular rash was 25%.
